Patent US20120164104A1, “Composition and Methods of Treating Viral Infections and Viral Induced Tumors” (Chimerix, Inc., priority 2009, published 2012)
pEC50, pIC50: −log10 of the molar value.

Assays:
JCV Mad-4 = assay: Extracellular JCV load in JCV-infected astrocyte cells (qPCR); format: cell-based; settings: in the presence of CMX001
Method: FIG. 17 illustrates the effect of increasing concentrations of CMX001 on extracellular viral load in astrocytes. Supernatants from JCV-infected PDA cells treated with indicated concentrations of CMX001 were harvested at indicated timepoints after infection and JCV load measured by qPCR. Data are presented as JCV load in log geq/ml. COS-7 or astrocyte cells were infected at a confluence of 60-70% with JCV(Mad-4) at an estimated TCID50 of 0.2. After 2 h incubation at 37° C., supernatants were replaced with fresh medium without or with increasing concentration CMX001. […] JCV loads were quantified after DNA extraction from 100 ul cell culture supernatants and the Corbett X-tractor Gene and the Corbett VX reagents (Qiagen, Hombrechtikon, Switzerland). The real-time PCR protocol for detection of JCV DNA samples targets the JCV large T coding sequence and has been described elsewhere (5). To examine the effect of CMX001 on JCV progeny levels over time, supernatants of treated and untreated cells were harvested at the indicated timepoints. To determine input virus samples were taken at 1 d.p.i. In the course of the infection for untreated cells, the extracellular JCV load changes approximately 1 log over the period of 7 days (3.22×107 vs 2.30×108 geq/ml).

JC virus = assay: Antiviral activity against JC virus in COS-7 cells (qPCR, 5 days); format: cell-based, JCV(Mad-4)
Method: In order to test the ability of CMX001 to inhibit JC virus, COS-7 cells were infected with JCV(Mad-4) at an estimated TCID50 of 0.2. After 2 h incubation at 37° C., supernatants were replaced with fresh medium without or with increasing amounts of CMX001 and incubated for 5 days. JC virus was quantified by qPCR after DNA extraction.

COS-7 cells [1] = assay: Metabolic activity of uninfected COS-7 cells (WST-1 assay); format: cell-based
Method: Metabolic activity was examined as WST-1 cleavage. Medium with indicated CMX001 concentrations was added to COS-7 cells and absorbance measured 72 h post seeding. Absorbance for untreated cells was set as 100%. The metabolic activity was monitored by the colorimetric WST-1 assay (Roche) of the mitochondrial dehydrogenases in viable cells. COS-7 cells were seeded in 96 well plates and CMX001 was added at indicated concentrations. The WST-1 cleavage product was measured at 450 nm (sample) and at 650 nm (background). WST-1 plus medium alone served as blank.

BKV = assay: Stability of CMX001 stock solution, tested by antiviral effect on extracellular BKV load; format: cell-based; settings: diluted to 0.31 uM
Method: FIG. 7 illustrates the stability of CMX001. For FIG. 7, BKV-infected RPTECs were treated with freshly made CMX001 or CMX001 from a stock solution at 1 mg/ml stored for one week at 4° C. or −20° C. Supernatants were harvested 72 h p.i. and extracellular BKV load measured by qPCR. Data are presented as BKV load in percent of untreated cells set at 100%.
To examine the stability of CMX001 stock solution 1 mg/ml was put in 4 or −20° C. for one week then diluted to 0.31 uM and tested for its antiviral effect by measuring the extracellular BKV load in BKV-infected RPTEC 3 d p.i.

COS-7 cells [2] = assay: DNA replication of uninfected COS-7 cells (BrdU assay); format: cell-based; settings: Chlorocebus aethiops
Method: FIG. 14 illustrates the effect of increasing concentrations of CMX001 on replication of COS-7 cells. DNA replication was determined by BrdU incorporation. Medium with indicated CMX001 concentrations was added to COS-7 cells and absorbance measured 72 h post seeding. Absorbance for untreated cells was set as 100%. DNA synthesis was quantified by the colorimetric measurement of BrdU incorporation into DNA in proliferating cells using the ‘Cell proliferation ELISA, BrdU’ kit (Roche). COS-7 cells were seeded in 96 well plates and CMX001 was added at indicated concentrations. Absorbance at 450 nm (sample) and at 650 nm (background) was determined 2 h after addition of the substrate.

BKV(Dunlop) = settings: BKV-infected RPTECs, Bernhoff et al., 2008, cited from earlier work
[3] = JC polyomavirus, 120 h, JCV(Mad-4), 5 days

Compound | change in JCV load over 7 days (JCV Mad-4) | pEC50 (JC virus; [3]) | EC90 (JC virus; [3]) | activity against JC virus (JC virus; in words) | loss of metabolic activity (COS-7 cells [1]; CMX001 0.6 μM, COS-7) | pIC50 (COS-7 cells [1]; Chlorocebus aethiops, uninfected COS-7 cells) | activity compared to the freshly prepared drug (BKV; stock 1 mg/ml stored one week at 4° C.) | activity compared to the freshly prepared drug (BKV; stock 1 mg/ml stored one week at −20° C.) | pIC50 (COS-7 cells [2]) | concentration of CDV inhibiting BKV (IC90) (BKV(Dunlop)) | IC90 (BKV(Dunlop); read-out: concentration of CDV inhibiting BKV (IC90))
CCCCCCCCCCCCCCCCOCCCOP(=O)(O)CO[C@H](CO)Cn1ccc(N)nc1=O [CMX001] | less than 1 log | 6.82 | 0.6 µM | active | 17% | ~5.30 | less than 60% | approximately 90% | ~6.22 |  | 
Nc1ccn(C[C@@H](CO)OCP(=O)(O)O)c(=O)n1 [cidofovir] |  |  |  |  |  |  |  |  |  | 40 µg/mL | 127 µM
